We go through 2 molecules from publication PMC9219689, “The Antioxidant Cyclic 3-Hydroxymelatonin Promotes the Growth and Flowering of Arabidopsis thaliana” (Antioxidants, 2022).

The target in data set [1] is T1, AtM3H (Arabidopsis thaliana melatonin 3-hydroxylase) (Arabidopsis thaliana, UniProt Q39224).
T1 construct: gene SRG1; full length, 358 residues; N-terminal hexahistidine tag (pET300), removal not mentioned; E. coli BL21(DE3), Ni-NTA purified
T1 sequence (Q39224 1-358): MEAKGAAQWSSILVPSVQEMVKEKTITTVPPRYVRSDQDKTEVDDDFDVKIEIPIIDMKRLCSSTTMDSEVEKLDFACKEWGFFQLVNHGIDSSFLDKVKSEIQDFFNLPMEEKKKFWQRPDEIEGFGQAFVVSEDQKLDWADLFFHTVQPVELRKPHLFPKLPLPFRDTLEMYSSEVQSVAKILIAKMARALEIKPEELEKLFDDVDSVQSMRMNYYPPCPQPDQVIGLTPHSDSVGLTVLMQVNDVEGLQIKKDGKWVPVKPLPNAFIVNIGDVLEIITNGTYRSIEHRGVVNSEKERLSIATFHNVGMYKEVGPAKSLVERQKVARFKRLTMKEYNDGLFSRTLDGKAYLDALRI
As to the kind of experiment: HPLC with fluorescence detection of 3-OHM; inhibition of M3H activity. In kind it is biochemical.

Substrate in data set [2]: COc1ccc2[nH]cc(CCNC(C)=O)c2c1
As to the kind of experiment: purified protein. As to conditions: co-substrate α-ketoglutarate (160 µM in standard assay), FeSO4 100 µM, ascorbate 1 mM, catalase, optimum conditions (pH 7.3, 30 °C; Methods list Tris/HCl pH 8.0).

A word on the inhibition: it is how much of the control response was suppressed. High values mean a strong effect, low ones a weak effect. In general, Km refers to the concentration of substrate that gives half-maximal velocity.

`CCC(=O)C1C(=O)CC(C(=O)O)CC1=O` (centres unmarked) [Prohexadione-Ca] had an inhibition at 500 µM in data set [1] of 50%.

B1: AtM3H (Arabidopsis thaliana melatonin 3-hydroxylase) (Arabidopsis thaliana) (protein)
chain: T1 sequence (Q39224 1-358)
With B1, the Km in data set [2] came out at 100 µM.
